Laboratory results as given in patent US5498755A, “Disubstituted aryl and heteroaryl imines having retinoid-like biological activity” (priority 1994, dated 1996).

Experiments:
[1] = test system: ornithine decarboxylase (ODC); experiment: ODC assay: inhibition of TPA induction of ornithine decarboxylase; type: biochemical; conditions: concentration of the test compound which causes 80% inhibition in the ODC assay; TPA-induced ODC
Text: The retinoic acid-like activity of these compounds is confirmed through the classic measure of retinoic acid activity involving the effects of retinoic acid on ornithine decarboxylase. The original work on the correlation between retinoic acid and decrease in cell proliferation was done by Verma & Boutwell, Cancer Research, 1977, 37, 2196-2201. That reference discloses that ornithine decarboxylase (ODC) activity increased precedent to polyamine biosynthesis. It has been established elsewhere that increases in polyamine synthesis can be correlated or associated with cellular proliferation. Thus, if ODC activity could be inhibited, cell hyperproliferation could be modulated. Although all cases for ODC activity increases are unknown, it is known that 12-O-tetradecanoylphorbol-13-acetate (TPA) induces ODC activity. […] Activity of exemplary compounds of the present invention in the above-described ODC assay is disclosed in Table 2 which provides the IC80 concentration for the respective exemplary compound. ("IC80 " is that concentration of the test compound which causes 80% inhibition in the ODC assay)

[2] = test system: ornithine decarboxylase (ODC); conditions: literature statement in words; 12-O-tetradecanoylphorbol-13-acetate (TPA) as inducer; cited from earlier work

| SMILES | IC80 conc [1] [nmols] | inhibition of TPA induction of ODC activity [2] |
| --- | --- | --- |
| CCOC(=O)c1ccc(C=Nc2ccc3c(c2)C(C)(C)CCC3(C)C)nc1 [Compound 7, Ethyl 6-(N-5,6,7,8-tetrahydro-5,5,8,8-tetramethyl-2-naphthalenyl) 3-ethoxycarbonyl-pyridine-6-carboxaldehyde imine] | > 30 |  |
| CCOC(=O)c1ccc(C=Nc2cc3c(cc2C)C(C)(C)CCC3(C)C)cc1 [Compound 6, N-(5,6,7,8-Tetrahydro-3,5,5,8,8-pentamethyl)-2-naphthalenyl 4-ethoxycarbonyl benzaldimine] | 293 |  |
| CCOC(=O)c1ccc(C=Nc2ccc3c(c2)C(C)(C)CCC3(C)C)cc1 [Compound 4, N-(5,6,7,8-Tetrahydro-5,5,8,8-tetramethyl)-2-naphthalenyl 4-ethoxycarbonyl benzaldimine] | 2.5 |  |
| CCOC(=O)c1ccc(C(C)=Nc2ccc3c(c2)C(C)(C)CCC3(C)C)cc1 [Compound 5, N-(5,6,7,8-Tetrahydro-5,5,8,8-tetramethyl)-2-naphthalenyl 4-ethoxycarbonyl acetophenone imine] | 5.5 |  |
| CCOC(=O)c1ccc(N=Cc2ccc3c(c2)C(C)(C)CCC3(C)C)cc1 [Compound 9, N-(4'-Ethoxycarbonyl)phenyl 5,6,7,8-tetrahydro-5,5,8,8-tetramethyl,naphthalene-2-carboxaldehyde imine] | 9.6 |  |
| CC1=C(/C=C/C(C)=C/C=C/C(C)=C/C(=O)O)C(C)(C)CCC1 [Retinoic acid] |  | inhibits this induction of ODC activity by TPA |

Further lines, with some results ahead:

| IC80 conc [1] [nmols] | SMILES | inhibition of TPA induction of ODC activity [2] |
| --- | --- | --- |
| 3.5 | CCOC(=O)c1ccc(N=Cc2cc3c(cc2C)C(C)(C)CCC3(C)C)cc1 [Compound 11, N-(4'-Ethoxycarbonyl) phenyl-2-(5,6,7,8-tetrahydro-3,5,5,8,8-pentamethyl) naphthalene-2-carboxaldehyde imine] |  |
| 14.5 | COC(=O)c1ccc(C=Nc2ccc3c(c2)C(C)(C)CCC3(C)C)cc1 [Compound 1] |  |
| 44.0 | CCOC(=O)c1ccc(N=Cc2ccc3c(c2)C(C)(C)CC(C)(C)O3)cc1 [Compound 10, N-(4'-Ethoxycarbonyl) phenyl 2,2,4,4-tetramethyl-chroman-6-carboxaldehyde imine] |  |
